Measured values published in patent US10105331B2, “Substituted aromatic compounds and pharmaceutical compositions for the prevention and treatment of diabetes” (PROMETIC PHARMA SMT LIMITED, priority 2014, dated 2018).
Several values for one entry are separate records, joined by “and”; a condition that tells them apart may be missing. Equal entries are not always repeated. Blank lines part the entries; values can stand above or below the compound they belong to.

What was measured:
[1] = test system: uninephrectomized db/db mice; experiment: Diabetic mouse (db/db) model, uninephrectomized: blood glucose, insulin, glucose/insulin ratio, islet insulin staining; type: in vivo; conditions: for blood glucose level: 105 days
Protocol: (§1) Male Lepr db (db/db) and age- and sex-matched control mice with the same genetic background (C57BL/6) were used. Animals were randomized using blood sugar measurement (5-hours starved) at week 6 and uninephrectomy (removal of right kidney) was performed. Sham animals (C57BL/6) underwent exposition of the right kidney. Animals that underwent the sham operation were given vehicle (saline) and were used as negative controls. C57BL/6 mice that were uninephrectomized were given vehicle and were used as positive controls. Db/db mice were treated with oral administration of compound I at 10 and 50 mg/kg per day for 105 days. Serum glucose was measured every two to four weeks.

[2] = test system: uninephrectomized db/db mice; experiment: Blood triglycerides level in serum of uninephrectomized db/db mice; type: in vivo; conditions: 10 or 50 mg/kg
Protocol: as §1
It is known that blood triglycerides is often associated with diabetes. High triglyceride levels in the blood tend to coexist with low levels of HDL (“good”) cholesterol, contributing to a condition called diabetic dyslipidemia. It is also known that a combination of high triglycerides, low HDL and central obesity are the hallmarks of the metabolic syndrome, which occurs in a majority people with type 2 diabetes.

β-TC-6 cells = experiment: Glucose-induced insulin secretion by β-TC-6 cells (insulin ELISA of supernatants); type: cell-based; conditions: for % Control (insulin secretion, individual values) / Average % Control (insulin secretion): β-TC-6 cells; for Insulin: glucose-induced insulin secretion by β-TC-6 cells, stimulation of 11 mM glucose, control 53
Protocol: β-TC-6 cells where used to determine if compounds according to the present invention were able to induce the production of insulin with or without stimulation with glucose. Briefly, β-TC-6 cells (200,000 cells/ml) were incubated in DMEM media and 15% heat inactivated serum in presence of absence of glucose (0.8M) with/without Compound I for 30 minutes and further incubated for 2 hours with a solution of Krebs containing 2.5, 11 and 25 mM glucose. Supernatants were collected and used for the detection of insulin (ELISA) performed as recommended by the supplier.

[3] = 50 mg/kg per day oral, NX db/db mice
[4] = uninephrectomized db/db mice, dose not stated in legend
[5] = glucose 11 mM, Compound I 40 μM
[6] = glucose 11 mM, Compound I 80 μM

melting point: 225 to 230 °C
Compound: CCCCCc1cc(CCCCC)cc(CC(=O)[O-])c1.[Na+] [Compound I, Sodium 2-[3,5-Dipentylphenyl]acetate]
blood glucose level ([1]; 10 mg/kg per day oral, compared to NX db/db): reduces blood glucose compare to NX db/db but stay stable over time | insulin level ([1]; 10 mg/kg per day oral, NX db/db mice): keeps a high insulin level (stabilization compare to Day 0) | blood glucose level [1, 3]: induces a significant decrease in blood glucose to a normal level | insulin level [1, 3]: reduces the insulin level close to a normal level | histoimmunostaining of insulin in the pancreatic islets ([1]; both concentrations (10 or 50 mg/kg), db/db Nx mice): reverses the loss of insulin detection | glucose/insulin ratio (insulin resistance) ([1]; day 33, uninephrectomized db/db mice): reduces the glucose/insulin ratio | glucose/insulin ratio (insulin resistance) ([1]; day 105, uninephrectomized db/db mice): reduces the glucose/insulin ratio | blood glucose level (FIG. 1 legend) [1, 4]: reduces blood glucose level down to normal level | insulin secretion (FIG. 2 legend) [1, 4]: reverses the fall of insulin secretion | blood triglyceride level in serum [2]: reduced the blood triglyceride level | % Control (insulin secretion, individual values) (β-TC-6 cells; [5]): 195.41 % Control and 187.16 % Control and 135.78 % Control and 149.35 % Control and 151.88 % Control and 143.13 % Control | Average % Control (insulin secretion) (β-TC-6 cells; [5]): 160.45 % Control | % Control (insulin secretion, individual values) (β-TC-6 cells; [6]): 192.66 % Control and 174.31 % Control and 203.67 % Control and 145.51 % Control and 129.29 % Control and 200.78 % Control | Average % Control (insulin secretion) (β-TC-6 cells; [6]): 174.37 % Control | Insulin (β-TC-6 cells): 76 ng/mL | % Control (insulin secretion, individual values) (β-TC-6 cells; no glucose, Compound I 40 μM): 53.76 % Control and 86.02 % Control and 47.31 % Control and 155.22 % Control and 135.63 % Control and 130.81 % Control | Average % Control (insulin secretion) (β-TC-6 cells; no glucose, Compound I 40 μM): 101.46 % Control | % Control (insulin secretion, individual values) (β-TC-6 cells; no glucose, Compound I 80 μM): 79.57 % Control and 38.71 % Control and 70.97 % Control and 123.28 % Control and 114.63 % Control and 177.33 % Control | Average % Control (insulin secretion) (β-TC-6 cells; no glucose, Compound I 80 μM): 100.75 % Control | glucose-induced insulin production in β-TC-6 cells (β-TC-6 cells; with or without glucose): increased with Compound I in presence of glucose only

Compound: CCCCCCc1cc(CCCCCC)cc(CC(=O)[O-])c1.[Na+] [Compound II, Sodium Salt of 2-(3,5-Dihexylphenyl)acetic acid]
Insulin (β-TC-6 cells): 123 ng/mL

Compound: CCCCCc1cc(CCCCC)c(O)c(CC(=O)[O-])c1.[Na+] [Compound III, Sodium Salt of 2-(2-Hydroxy-3,5-dipentylphenyl)acetic acid]
Insulin (β-TC-6 cells): 109 ng/mL

Compound: CCCCCCc1cc(CCCCCC)c(O)c(CC(=O)[O-])c1.[Na+] [Compound IV, Sodium Salt of 2-(3,5-Dihexyl-2-hydroxyphenyl)acetic acid]
Insulin (β-TC-6 cells): 147 ng/mL

Compound: CCCCCc1cc(CCCCC)c(Cc2ccccc2)c(CC(=O)[O-])c1.[Na+] [Compound IX, Sodium Salt of 2-(2-Benzyl-3,5-dipentylphenyl)acetic Acid]
Insulin (β-TC-6 cells): 110 ng/mL

Compound: CCCCCc1cc(CC(=O)[O-])cc(CCCCC)c1O.[Na+] [Compound V, Sodium Salt of 2-(4-Hydroxy-3,5-dipentylphenyl)acetic acid]
Insulin (β-TC-6 cells): 59 ng/mL

Compound: CCCCCCc1cc(CC(=O)[O-])cc(CCCCCC)c1O.[Na+] [Compound VI, Sodium Salt of 2-(3,5-Dihexyl-4-hydroxyphenyl)acetic acid]
Insulin (β-TC-6 cells): 67 ng/mL

Compound: CCCCCc1cc(CC(=O)[O-])cc(CCCCC)c1F.[Na+] [Compound VIII, Sodium Salt of 2-(4-Fluoro-3,5-dipentylphenyl)acetic acid]
Insulin (β-TC-6 cells): 64 ng/mL

Compound: CCC/C=C/c1cc(/C=C/CCC)cc(CC(=O)[O-])c1.[Na+] [Compound X, Sodium 2-[3,5-Di[(E)-Pent-1-enyl]phenyl]acetate]
Insulin (β-TC-6 cells): 102 ng/mL

Compound: CCCCCc1cc(CCCCC)cc(CCC(=O)[O-])c1.[Na+] [Compound XI, Sodium 3-[3,5-Dipentylphenyl]propanoate]
Insulin (β-TC-6 cells): 89 ng/mL

Compound: CCCC/C=C/c1cc(/C=C/CCCC)cc(CC(=O)[O-])c1.[Na+] [Compound XII, Sodium Salt of 2-(3,5-Di((E)-hex-1-enyl)phenyl)acetic acid]
Insulin (β-TC-6 cells): 70 ng/mL
